# Calls of active or inactive are those of the source. The rule behind the calls is not given here.
# Key:
# [1] = biological target: Acetylcholinesterase (Electrophorus electricus) (UniProt O42275); assay: Inhibition of electric eel AchE using acetylthiocholine iodide as substrate at <10 uM measured for 3 mins by Ellman's method relative to control
# [2] = biological target: Cholinesterase (Equus caballus) (UniProt P81908); assay: Inhibition of horse serum BuChE using butyrylthiocholine iodide as substrate at <10 uM measured for 3 mins by Ellman's method relative to control; format: cell-free
# [3] = biological target: Cholinesterase (Equus caballus, UniProt P81908); assay: Inhibition of horse serum BuChE using butyrylthiocholine iodide as substrate measured for 3 mins by Ellman's method; format: cell-free
# [4] = Effective permeability of compound at 25 ug/ml incubated for 18 hrs by PAMPA-BBB assay; format: ADME; details: dose 25 µg/ml, read-out: Peff
# [5] = Neurotoxicity against rat PC12 cells incubated for 24 hrs by MTT assay; format: toxicity, cell-based, PC-12; details: read-out: LD50
# [6] = Neurotoxicity against human SH-SY5Y cells incubated for 24 hrs by MTT assay; format: toxicity, cell-based; details: read-out: LD50
# [7] = Neurotoxicity against mouse BV-2 cells incubated for 24 hrs by MTT assay; format: toxicity, cell-based; details: read-out: LD50
# [8] = Neurotoxicity against mouse HT-22 cells incubated for 24 hrs by MTT assay; format: toxicity, cell-based; details: read-out: LD50
# [9] = biological target: Cholinesterase (Homo sapiens, UniProt P06276); assay: Inhibition of human BChE using butyrylthiocholine iodide as substrate measured for 3 mins by Ellman's method
# [10] = Neurotoxicity against human SH-SY5Y cells assessed as survival rate incubated for 24 hrs by MTT assay relative to control; format: toxicity, cell-based; parameters: concentration or dose not given beside the values; details: read-out: Survival
# [11] = Neurotoxicity against mouse HT-22 cells assessed as survival rate incubated for 24 hrs by MTT assay relative to control; format: toxicity, cell-based; parameters: concentration or dose not given beside the values; details: read-out: Survival
# [12] = Neurotoxicity against rat PC12 cells assessed as survival rate incubated for 24 hrs by MTT assay relative to control; format: toxicity, cell-based, PC-12; parameters: concentration or dose not given beside the values; details: read-out: Survival
# [13] = system: SH-SY5Y; assay: Neuroprotective activity against amyloid beta (1 to 42)-induced injury in human SH-SY5Y cells assessed as cell viability at 0.5 to 50 uM by MTT assay; format: functional, cell-based; details: dose 0.5-50 µM
# [14] = system: Mus musculus; assay: Antialzheimer activity against amyloid beta (1 to 42)-induced mouse model of cognitive dysfunction assessed as latency time at 15 mg/kg, po measured for 14 days by Morris Water maze method; format: functional, ICR; details: time 14 day
# [15] = system: Mus musculus; assay: Antialzheimer activity against amyloid beta (1 to 42)-induced mouse model of cognitive dysfunction assessed as reaching target platform at 15 mg/kg, po measured for 14 days by Morris Water maze method; format: functional, organism-based; details: ICR, time 14.0 day
# [16] = system: Mus musculus; assay: Antialzheimer activity against amyloid beta (1 to 42)-induced mouse model of cognitive dysfunction assessed as reduction in latency time at 15 mg/kg, po measured for 14 days by Morris Water maze method; format: functional, organism-based; details: ICR, time 14.0 day
# [17] = biological target: Cholinesterase (Mus musculus, UniProt Q03311)
# Chain of Cholinesterase (Mus musculus, UniProt Q03311) (Q03311 whole entry): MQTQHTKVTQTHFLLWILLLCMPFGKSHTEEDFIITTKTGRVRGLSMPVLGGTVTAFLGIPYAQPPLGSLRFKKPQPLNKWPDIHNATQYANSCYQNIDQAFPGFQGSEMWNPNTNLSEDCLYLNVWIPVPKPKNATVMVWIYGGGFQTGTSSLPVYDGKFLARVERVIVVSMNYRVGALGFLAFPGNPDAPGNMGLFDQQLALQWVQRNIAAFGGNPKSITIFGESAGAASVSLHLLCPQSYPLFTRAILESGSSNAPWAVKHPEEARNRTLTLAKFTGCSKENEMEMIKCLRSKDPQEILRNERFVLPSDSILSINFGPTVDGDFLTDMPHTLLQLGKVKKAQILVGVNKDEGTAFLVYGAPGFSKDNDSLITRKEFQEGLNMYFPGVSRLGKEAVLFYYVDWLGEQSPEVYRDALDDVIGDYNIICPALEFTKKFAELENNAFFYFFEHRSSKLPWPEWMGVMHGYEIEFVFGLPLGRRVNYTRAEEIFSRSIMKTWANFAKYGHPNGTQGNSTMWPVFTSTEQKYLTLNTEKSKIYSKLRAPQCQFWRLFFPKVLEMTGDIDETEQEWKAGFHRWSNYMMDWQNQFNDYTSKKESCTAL
# Description: Inhibition of mouse BChE by Ellman's method
# Chain of Cholinesterase (Equus caballus) (P81908 whole entry): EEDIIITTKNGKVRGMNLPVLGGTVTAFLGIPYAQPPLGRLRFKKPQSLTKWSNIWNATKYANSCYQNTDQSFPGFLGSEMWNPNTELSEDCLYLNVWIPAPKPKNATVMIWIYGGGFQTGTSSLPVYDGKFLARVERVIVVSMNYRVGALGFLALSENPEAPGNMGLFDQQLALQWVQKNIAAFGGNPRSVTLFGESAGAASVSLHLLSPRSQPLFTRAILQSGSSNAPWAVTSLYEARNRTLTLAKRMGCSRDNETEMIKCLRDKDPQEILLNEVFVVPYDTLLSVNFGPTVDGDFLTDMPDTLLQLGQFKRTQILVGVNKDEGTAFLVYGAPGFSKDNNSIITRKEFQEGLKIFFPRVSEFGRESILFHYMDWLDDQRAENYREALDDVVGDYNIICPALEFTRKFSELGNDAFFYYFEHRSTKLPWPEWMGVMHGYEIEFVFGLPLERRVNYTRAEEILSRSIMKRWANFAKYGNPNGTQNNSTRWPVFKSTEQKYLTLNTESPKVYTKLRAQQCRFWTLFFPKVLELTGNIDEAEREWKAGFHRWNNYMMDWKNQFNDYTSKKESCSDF
# Chain of Cholinesterase (Equus caballus, UniProt P81908) (P81908 whole entry): as above
# Chain of Acetylcholinesterase (Electrophorus electricus) (O42275 24-633 limits assumed): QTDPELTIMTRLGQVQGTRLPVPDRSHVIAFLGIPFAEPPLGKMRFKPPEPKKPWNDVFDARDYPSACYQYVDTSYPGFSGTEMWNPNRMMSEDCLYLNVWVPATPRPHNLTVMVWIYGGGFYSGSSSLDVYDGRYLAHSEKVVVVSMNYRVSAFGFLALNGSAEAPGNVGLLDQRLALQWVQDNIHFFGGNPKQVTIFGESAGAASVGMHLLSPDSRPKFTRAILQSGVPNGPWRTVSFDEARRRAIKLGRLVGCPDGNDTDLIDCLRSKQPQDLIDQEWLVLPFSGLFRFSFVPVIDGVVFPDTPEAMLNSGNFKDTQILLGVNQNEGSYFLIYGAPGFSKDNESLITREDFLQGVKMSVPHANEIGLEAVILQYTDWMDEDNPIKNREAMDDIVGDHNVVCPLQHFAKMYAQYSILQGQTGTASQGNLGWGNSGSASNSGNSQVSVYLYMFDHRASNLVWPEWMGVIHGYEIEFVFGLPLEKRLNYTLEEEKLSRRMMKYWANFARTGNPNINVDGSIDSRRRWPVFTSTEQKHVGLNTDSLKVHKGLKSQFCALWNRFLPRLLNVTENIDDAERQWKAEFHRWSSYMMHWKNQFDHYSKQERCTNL
# Chain of Cholinesterase (Homo sapiens, UniProt P06276) (P06276 whole entry): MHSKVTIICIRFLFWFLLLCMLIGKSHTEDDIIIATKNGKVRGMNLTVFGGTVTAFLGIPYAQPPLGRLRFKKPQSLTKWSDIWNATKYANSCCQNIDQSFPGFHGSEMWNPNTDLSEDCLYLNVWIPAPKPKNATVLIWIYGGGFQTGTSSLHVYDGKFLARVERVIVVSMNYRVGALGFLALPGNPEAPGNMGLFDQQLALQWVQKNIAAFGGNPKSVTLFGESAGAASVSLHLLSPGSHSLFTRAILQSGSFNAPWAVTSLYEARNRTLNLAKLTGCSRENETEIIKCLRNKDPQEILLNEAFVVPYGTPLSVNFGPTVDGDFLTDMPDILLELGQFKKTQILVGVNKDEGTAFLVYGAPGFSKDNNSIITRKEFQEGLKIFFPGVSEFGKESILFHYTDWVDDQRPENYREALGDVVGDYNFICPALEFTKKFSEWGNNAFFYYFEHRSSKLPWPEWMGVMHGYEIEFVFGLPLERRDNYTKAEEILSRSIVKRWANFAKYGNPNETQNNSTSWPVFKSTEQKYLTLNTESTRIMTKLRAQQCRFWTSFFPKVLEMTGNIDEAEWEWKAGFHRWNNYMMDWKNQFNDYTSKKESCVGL
Structure (SMILES),inhibition [1],inhibition [2],IC50 [3],other results
Cc1cccc(NC(=O)CN(Cc2ccccc2)Cc2ccco2)c1C,19.7%,61.9%,2.67 µM,"Papp at 18 h, 25 ug/ml [4]: 9.47 ×10⁻⁶ cm/s; CC50 at 24 h [5]: 32.1 µM; CC50 at 24 h [6]: 35 µM; CC50 at 24 h [7]: 16.6 µM; CC50 at 24 h [8]: 46.8 µM"
COc1cc(NC(=O)CN(Cc2ccccc2)Cc2ccco2)cc(OC)c1OC,16.1%,18.9%,52.3 µM,
Cc1ccccc1NC(=O)CN(Cc1ccc2ccccc2c1)C1CCCCC1,25.3%,57.5%,4.26 µM,
Cc1cccc(NC(=O)CN(Cc2ccco2)Cc2c[nH]c3ccccc23)c1,14.3%,55.2%,6.61 µM,
CCCN(CC(=O)Nc1ccccc1C)Cc1ccc2ccccc2c1,22.9%,91.3%,0.19 µM,"IC50 [9]: 0.027 µM; Papp at 18 h, 25 ug/ml [4]: 11.9 ×10⁻⁶ cm/s; CC50 at 24 h [5]: 45.9 µM; viability at 24 h [10]: 52.8%; CC50 at 24 h [7]: 17.6 µM; viability at 24 h [11]: 51.6%"
O=C(CN(Cc1ccco1)Cc1cccc2ccccc12)Nc1ccccc1,19.6%,47.1%,21.7 µM,
Cc1ccccc1NC(=O)CN(Cc1ccc2ccccc2c1)CC(C)(C)C,19.6%,64.6%,4.1 µM,
c1ccc(CCCN(Cc2ccc3ccccc3c2)Cc2ccco2)cc1,13.4%,42.5%,15.7 µM,
Cc1ccccc1NC(=O)CN(Cc1ccccc1)Cc1ccco1,14.2%,54.7%,5.46 µM,
COc1ccccc1NC(=O)CN(Cc1ccccc1)Cc1ccco1,14.7%,44.2%,26.4 µM,
O=C(CN(Cc1ccc2ccccc2c1)Cc1ccco1)Nc1ccccc1,16.9%,62.9%,2.26 µM,"Papp at 18 h, 25 ug/ml [4]: 7.81 ×10⁻⁶ cm/s; viability at 24 h [12]: 100%; viability at 24 h [10]: 90.7%; CC50 at 24 h [7]: 14 µM; viability at 24 h [11]: 86.5%"
CCCCN(CCCc1ccccc1)Cc1ccc2ccccc2c1,23%,89%,0.23 µM,"IC50 [9]: 0.011 µM; Papp at 18 h, 25 ug/ml [4]: 10.1 ×10⁻⁶ cm/s; viability at 24 h [12]: 51.9%; viability at 24 h [10]: 85.5%; CC50 at 24 h [7]: 34.4 µM; viability at 24 h [11]: 51.2%; Activity [13]: inactive; Time [14]: 14.4 s; Activity [15]: Active"
O=C(CN(Cc1ccccc1)Cc1ccco1)Nc1ccccc1Cl,17.5%,50.5%,9.96 µM,
COc1cc2c(cc1OC)C(=O)C(CC1CCN(Cc3ccccc3)CC1)C2 (centres undefined),,,,Activity [16]: Active
O=C(CN(Cc1ccco1)Cc1ccco1)Nc1ccccc1,12.6%,47.3%,7.81 µM,
CCCN(CCCc1ccccc1)Cc1ccc2ccccc2c1,21.4%,80.3%,1.45 µM,"IC50 [9]: 0.03 µM; Papp at 18 h, 25 ug/ml [4]: 10.3 ×10⁻⁶ cm/s; CC50 at 24 h [5]: 77.8 µM; viability at 24 h [10]: 62.6%; CC50 at 24 h [7]: 29 µM; CC50 at 24 h [8]: 54.6 µM"
Cc1cccc(NC(=O)CN(Cc2ccccc2)Cc2ccco2)c1,13.3%,57.8%,7.33 µM,
O=C(CN(Cc1ccco1)Cc1c[nH]c2ccccc12)Nc1ccccc1,26.2%,65.3%,2.14 µM,"Papp at 18 h, 25 ug/ml [4]: 7.3 ×10⁻⁶ cm/s; CC50 at 24 h [5]: 40.4 µM; CC50 at 24 h [6]: 42.2 µM; CC50 at 24 h [7]: 27.5 µM; CC50 at 24 h [8]: 59.6 µM"
N#Cc1ccc(NC(=O)CN(Cc2ccccc2)Cc2ccco2)cc1,9.68%,28.6%,710 µM,
N#Cc1ccccc1NC(=O)CN(Cc1ccccc1)Cc1ccco1,10.3%,36.6%,118 µM,
O=C(CN(Cc1ccccc1)Cc1ccco1)Nc1ccc(C(F)(F)F)cc1,13.4%,50.9%,6.8 µM,
CCCCN(CC(=O)Nc1ccccc1C)Cc1ccc2ccccc2c1,21.9%,77.9%,1.48 µM,"IC50 [9]: 0.18 µM; Papp at 18 h, 25 ug/ml [4]: 13.9 ×10⁻⁶ cm/s; viability at 24 h [12]: 49.1%; CC50 at 24 h [6]: 70.2 µM; CC50 at 24 h [7]: 19 µM; viability at 24 h [11]: 83.1%"
C[C@]12CC[C@@H]3c4ccc(O)cc4CC[C@H]3[C@@H]1CC[C@@H]2O [ESTRADIOL],,,,"Papp at 18 h, 25 ug/ml [4]: 14.6 ×10⁻⁶ cm/s"
O=C(CN(Cc1ccccc1)Cc1ccco1)Nc1ccccc1F,14.1%,50.9%,8.86 µM,

Structure (SMILES),inhibition [1],inhibition [2],IC50 [3],other results
O=C(CN(Cc1ccccc1)Cc1ccco1)Nc1ccc2c(c1)OCO2,15.2%,57.3%,8.26 µM,
COc1ccc(NC(=O)CN(Cc2ccccc2)Cc2ccco2)cc1,18.2%,21.6%,121 µM,
Cc1ccc(NC(=O)CN(Cc2ccccc2)Cc2ccco2)cc1,12.8%,37.5%,149 µM,
O=C(CN(Cc1ccccc1)Cc1ccco1)Nc1cccc(Cl)c1,19.6%,42.8%,47.4 µM,
COc1cccc(NC(=O)CN(Cc2ccccc2)Cc2ccco2)c1,9.2%,50.1%,24.8 µM,
CC(C)CN(CCCc1ccccc1)Cc1ccc2ccccc2c1,19.4%,54.7%,4.04 µM,"IC50 [9]: 0.024 µM; Papp at 18 h, 25 ug/ml [4]: 9.87 ×10⁻⁶ cm/s; viability at 24 h [12]: 86.3%; viability at 24 h [10]: 155%; CC50 at 24 h [7]: 48.7 µM; viability at 24 h [11]: 83.5%"
Cc1ccccc1NC(=O)CN(Cc1ccc2ccccc2c1)Cc1ccco1,15.9%,70.6%,1.22 µM,"Papp at 18 h, 25 ug/ml [4]: 5.67 ×10⁻⁶ cm/s; viability at 24 h [12]: 67.3%; viability at 24 h [10]: 69.4%; CC50 at 24 h [7]: 10.9 µM; viability at 24 h [11]: 67.1%"
O=C(CN(Cc1ccccc1)Cc1ccco1)Nc1ccc2ccccc2c1,13.9%,50.4%,9.77 µM,
Cc1cccc(NC(=O)CN(Cc2ccc3ccccc3c2)Cc2ccco2)c1,15.1%,70.5%,1.74 µM,"Papp at 18 h, 25 ug/ml [4]: 9.07 ×10⁻⁶ cm/s; viability at 24 h [12]: 105%; viability at 24 h [10]: 91.7%; CC50 at 24 h [7]: 24.9 µM; viability at 24 h [11]: 91.4%"
O=C(CN(Cc1ccccc1)Cc1ccco1)Nc1ccccc1,12.6%,39.6%,15.4 µM,
O=C(CN(Cc1ccco1)Cc1ccccc1[N+](=O)[O-])Nc1ccccc1,15.8%,61.9%,1.3 µM,"Papp at 18 h, 25 ug/ml [4]: 4.93 ×10⁻⁶ cm/s"
O=C(CN(Cc1ccccc1)Cc1ccco1)Nc1cccc(Br)c1,13.4%,54.7%,6.23 µM,
COCCN(CC1CCCN(Cc2ccccc2)C1)S(=O)(=O)c1ccc2ccccc2c1 (centres undefined),,,,IC50 [17]: > 10 µM
O=C(CN(Cc1ccccc1)Cc1ccco1)Nc1cccc(F)c1F,18%,50.1%,13.3 µM,
O=C(CN(Cc1ccccc1)Cc1ccco1)Nc1cccc(F)c1,17.3%,47%,31.7 µM,
Cc1ccccc1NC(=O)CN(Cc1ccco1)Cc1c[nH]c2ccccc12,14.2%,64.7%,4.39 µM,
O=C(CN(Cc1ccccc1)Cc1ccco1)Nc1cccc2ccccc12,13.6%,63%,3.53 µM,
O=C(CN(Cc1ccccc1)Cc1ccco1)Nc1ccc(F)cc1,14.5%,47.1%,28.3 µM,
Cc1cccc(NC(=O)CN(Cc2ccco2)Cc2c[nH]c3ccccc23)c1C,18.2%,52.3%,10.9 µM,
O=C(CN(Cc1ccccc1)Cc1ccco1)Nc1cnc2ccccc2c1,13.2%,29.6%,27.9 µM,
CCN(CC)CCN(CC(=O)Nc1ccccc1C)Cc1ccc2ccccc2c1,20.1%,85.6%,1.45 µM,"IC50 [9]: 0.29 µM; Papp at 18 h, 25 ug/ml [4]: 10.6 ×10⁻⁶ cm/s; CC50 at 24 h [5]: 40.6 µM; CC50 at 24 h [6]: 50.8 µM; CC50 at 24 h [7]: 24.2 µM; CC50 at 24 h [8]: 85.1 µM; Activity [13]: inactive"
CN(C)CCCN1c2ccccc2Sc2ccc(Cl)cc21 [CHLORPROMAZINE],,,,"Papp at 18 h, 25 ug/ml [4]: 6.69 ×10⁻⁶ cm/s"
Cc1cccc(NC(=O)CN(Cc2ccc3ccccc3c2)Cc2ccco2)c1C,15.3%,48.1%,11 µM,

# — ChEMBL document CHEMBL5352417, “Design, synthesis, and biological evaluation of aromatic tertiary amine derivatives as selective butyrylcholinesterase inhibitors for the treatment of Alzheimer's disease” (Eur J Med Chem, 2022)
